Measured values reported in patent publication US20160311760A1, “COMPOUNDS FOR TREATMENT OF CARDIAC ARRHYTHMIAS” (ELEX BIOTECH, LLC, priority 2013, published 2016).
pIC50: −log10 of the molar value.

Columns and labels:
in vitro [1] = conditions: human
RyR2 [2] = molecular target: T1, RyR2 (Mus musculus, UniProt E9Q401); experiment: Ca2+ spark frequency assay in ventricular myocytes from CPVT mouse model (R176Q/+); format: cell-based; conditions: cells derived from a CPVT mouse model (R176Q/+ ventricular myocytes); read-out: IC50 (inhibition of calcium spark frequency)
T1 construct: other: cells derived from a CPVT mouse model (R176Q/+ ventricular myocyte)
Description: (§1) Therein, calcium spark frequency data are shown in the presence of increasing amounts of added compound. IC50 is a measure of the effectiveness of a substance in inhibiting a particular biological process or function. Calcium spark frequency is plotted along the y-axis and compound concentration is plotted along the x-axis. Example dose-response curve 120 is included to illustrate the inhibitory effect of Compound 1 on spark frequency for the cells derived from a CPVT mouse model. The quantitative value of IC50 can be determined by identifying the concentration where half of the maximum biological response, such as the calcium spark response, is inhibited. For example, at lower compound concentrations dose-response curve 110 has a higher level of calcium spark frequency, whereas at higher compound concentrations, a transition of the calcium spark frequency to a lower level is observed. The concentration at which the sigmoidal curve of data response curve 120 has a spark frequency reduced by half corresponds to the IC50. […] Thus, as one example, a method for treating cardiac arrhythmias may include administering an amount of Compound 1 to a subject afflicted with heart arrhythmias. The administration may be performed via known routes, such as oral, epidermal, subcutaneous, intravenous, peritoneal, etc.
(§2) Functional Assays in CPVT mouse cells may include isolating ventricular cardiomyocytes from adult (2-3 month-old) R176Q/+ mice or WT littermates. In one exemplary assay, myocytes were loaded with 2 μM Fluo-4-AM in a normal Tyrode solution containing 1.8 mM Ca2+ for 30 minutes at room temperature before washing the cells with Tyrode solution for 15 minutes for de-esterification and transfering to a chamber equipped with parallel platinum electrodes.
(§3) After baseline measurements were completed, myocytes were exposed to the test lead compound. After a 5 min superfusion period, Ca2+ sparks were again measured in the same cell in the presence of the drug compound. The frequency of Ca2+ sparks (CaSpF) were calculated, e.g., using SparkMaster (Picht, E., et al., SparkMaster: automated calcium spark analysis with ImageJ. Am J Physiol Cell Physiol, 2007. 293(3): p. C1073-81), and applications before and after inclusion of the test compound were compared. A detailed dose-response relationship and measurements of inhibition of arrhythmogenic Ca2+ waves in ventricular myocytes from a CPVT mouse model (R176Q/+) were then completed on those compounds showing a significant decrease in spark frequency at 0.5 μM. At the conclusion of these experiments, the Ca2+ spark inhibition rate is calculated as a function of concentration for each compound tested, and an IC50 value determined for each drug compound. […] FIG. 4 compares an exemplary confocal line-scan image of Ca2+ spark recordings from ventricular myocytes isolated from wild-type (WT) mice at 410 relative to those isolated from S2814D mice as shown at 420.
(§4) The above-discussed Ca2+ spark assay was used with R176Q/+ myocytes as an initial screening assay to test the ability of new compounds to inhibit spontaneous pathological SR Ca2+ release in ventricular myocytes.

in vitro [3] = conditions: human; remark: listed apart in the source
R176Q/+ mice = experiment: Arrhythmias (ventricular tachycardia) after cardiac pacing / programmed electrical stimulation in CPVT mice, whole animal level; format: in vivo, mouse
Description: Ventricular tachycardia (or VT) is a type of tachycardia, or a rapid heart beat that arises from improper electrical activity of the heart that presents as a rapid heart rhythm. VT is associated with the bottom chambers of the heart, called the ventricles, which are pumping chambers of the heart. […] Therein, electrical signals for four different CPVT mice are shown. Wild type (or WT) signal 210 is provided for reference to illustrate a sinus rhythm (e.g., L2-ECG, lead 2 of the surface ECG). Atrial and ventricular intracardiac electrocardiogram signals are also provided for reference.

RyR2 [4] = experiment: Ca2+ spark frequency assay in ventricular myocytes from CPVT mouse model (R176Q/+); format: cell-based; conditions: versus tetracaine
Description: as §1, §2, §3, §4

[5] = Effect on the length of the AP
Description: (§5) For example, the concentration of lead compound Compound 1 that suppressed ventricular tachycardia is approximately 0.5% of compound K201 (JTV519) that was previously used to inhibit arrhythmias in a similar mouse model. […] Therefore, advantages exist with regard to reduction of dosage response time compared to previously used drugs to inhibit arrhythmias. […] While Compound 1 inhibits sparks and arrhythmias at 35 nM, the ATPase activity of SERCA2 has been measured versus concentration of Compound 1. At concentrations of 1 μM, 10 μM and 50 μM, ATPase activity was unaffected (data not shown). The data shown in FIGS. 2 and 3 have been repeated several times with different animals (e.g., rabbit model).

SERCA2 = SERCA2 (Homo sapiens, UniProt P16615); experiment: ATPase activity of SERCA2 versus concentration; format: biochemical
Sequence of SERCA2 (P16615 whole entry, species assumed): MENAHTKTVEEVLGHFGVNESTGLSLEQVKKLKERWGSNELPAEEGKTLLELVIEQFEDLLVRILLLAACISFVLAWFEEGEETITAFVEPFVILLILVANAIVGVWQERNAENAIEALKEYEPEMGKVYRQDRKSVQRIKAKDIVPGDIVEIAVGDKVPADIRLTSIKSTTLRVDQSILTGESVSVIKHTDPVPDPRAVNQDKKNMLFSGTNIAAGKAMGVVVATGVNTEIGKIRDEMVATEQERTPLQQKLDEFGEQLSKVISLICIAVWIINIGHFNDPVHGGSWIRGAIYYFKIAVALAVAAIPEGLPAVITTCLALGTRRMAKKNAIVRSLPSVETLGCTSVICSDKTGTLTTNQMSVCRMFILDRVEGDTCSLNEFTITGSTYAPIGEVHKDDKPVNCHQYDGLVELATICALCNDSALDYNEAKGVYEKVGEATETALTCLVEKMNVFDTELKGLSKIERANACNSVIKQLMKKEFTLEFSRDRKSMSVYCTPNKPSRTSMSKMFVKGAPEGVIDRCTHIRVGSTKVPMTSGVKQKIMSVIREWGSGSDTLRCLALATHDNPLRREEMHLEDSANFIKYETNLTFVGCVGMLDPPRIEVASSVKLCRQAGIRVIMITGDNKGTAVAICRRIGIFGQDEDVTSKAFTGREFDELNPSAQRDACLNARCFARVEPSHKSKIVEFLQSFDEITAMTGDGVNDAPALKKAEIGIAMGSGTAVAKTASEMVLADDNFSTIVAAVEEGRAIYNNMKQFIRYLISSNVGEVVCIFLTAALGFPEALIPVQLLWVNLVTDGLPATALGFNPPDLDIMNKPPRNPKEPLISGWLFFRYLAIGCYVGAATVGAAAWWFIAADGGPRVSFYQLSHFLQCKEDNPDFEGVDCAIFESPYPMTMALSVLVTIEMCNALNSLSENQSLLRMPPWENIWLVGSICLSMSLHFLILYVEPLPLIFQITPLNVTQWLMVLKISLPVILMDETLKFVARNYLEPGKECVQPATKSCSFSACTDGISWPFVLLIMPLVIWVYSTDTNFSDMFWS
Description: as §5

Cytotoxicity in HepG2 = conditions: human, HepG2 cells
Cytotoxicity in HEK293 = conditions: human, HEK293 cells
RyR = RyR (Oryctolagus cuniculus, UniProt P11716); conditions: literature value; cited from earlier work

Row | pIC50 (in vitro [1]) | pIC50 (RyR2 [2]) | pIC50 (in vitro [3]) | SMILES | also measured
1 | < 4.30 | 7.96 | < 4.30 | CCCCNc1cc(OC)c(C(=O)OCCN(CC)CC)cc1Cl [Compound 2] | 
2 | < 4.30 | 6.10 | < 4.30 | CCCCNc1ccc(C(=O)OCCNCC)cc1C [Compound 5] | 
3 | < 4.30 | 6.30 | < 4.30 | CCCCNc1ccc(C(=O)O)cc1N(CCCC)CCCC [Compound 3] | 
4 |  | 6.20 |  | CCCCNc1ccc(OC(C)=O)cc1C [Compound 4] | 
5 |  |  |  | CCCCNc1ccc(C(=O)OCCN(C)C)cc1.Cl [Tetracaine] | pIC50 (Cytotoxicity in HepG2): < 4.30; pIC50 (Cytotoxicity in HEK293): < 4.30; concentration at which the RyR is inhibited (RyR): ~150 µM

Row | SMILES | pIC50 (in vitro [1]) | pIC50 (RyR2 [2]) | pIC50 (in vitro [3]) | also measured
6 | CCCCNc1ccc(C(=O)OCCN(CC)CC)c(OC)c1 [Compound 1] | < 4.30 | 7.46 | < 4.30 | level at which arrhythmias are decreased in the whole animal (R176Q/+ mice; CPVT mice, whole animal level): 2.5 µg/kg; concentration with antiarrhythmic activity, as share of that of flecainide (R176Q/+ mice; CPVT mouse model, versus flecainide): 0.1%; arrhythmic development following pacing (R176Q/+ mice; R176Q/+ mice, cardiac pacing, ECG (FIG. 2)): protected from arrhythmic development following pacing; time to inhibition of arrhythmias (R176Q/+ mice; injected in the tail of the mouse): ≤ 10 min; concentration that suppressed ventricular tachycardia, as share of that of K201 (JTV519) (R176Q/+ mice; versus K201 in a similar mouse model): approximately 0.5%; potency relative to the parent molecule tetracaine (inhibiting RyR2 activity / CRC) (RyR2 [4]): ~3000 times; effect on the length of the AP [5]: No indication has been observed that Compound 1 has any effect on the length of the AP; ATPase activity of SERCA2 (SERCA2; 1 μM): unaffected; ATPase activity of SERCA2 (SERCA2; 10 μM): unaffected; ATPase activity of SERCA2 (SERCA2; 50 μM): unaffected
